Measurements: patent US20210393724A1, “MEDICINE FOR TREATMENT OF PSORIASIS AND PRODUCTION METHOD THEREOF” (YEDITEPE UNIVERSITESI, priority 2018, published 2021)

Test system: IMQ-induced psoriasis inflammation
Experiment: IMQ-induced psoriasis mouse model: PASI scoring, ear thickness, spleen/body weight
Assay type: in vivo, BALB/c mice
Settings: MTX 1 mg/kg orally per day
Method: The cream named Aldara (Meda Pharma, 3M Health Care) containing 5% Imiquimib (IMQ) was administered once a day for 6 days on the shaved backs and right ears of 8-11 weeks old adult male BALB/c mice such that a total of 62.5 mg cream is applied per day per animal thereby psoriasis inflammation was produced in the animal model. Vaseline was applied to the shaved area of the animals in the control group. The positive control group received 1 mg/kg Mtx (Methotrexate) orally per day. The drug was administered orally at a dose of 5 mg/kg once a day during the experiment. Administration of the drug to the animals in the group where the semi-therapeutic effect of the drug was to be tested was initiated 1 day after the onset of induction of psoriasis with IMQ, and continued until the end of the experiment period. Body weight, and redness, flaking and thickening on the skin were daily measured and scored according to the Psoriasis Area Severity. Index (PASI) to monitor the general health status of the animals and the induction of psoriasis with IMQ. As required by the model, thickening of the right ear skin was also recorded on a regular basis since the day the experiments began. At the end of the application, animals were anesthetized by isoflurane and then euthanized by cervical dislocation. The size and weight of the spleen tissues were recorded.

CN(Cc1cnc2nc(N)nc(N)c2n1)c1ccc(C(=O)N[C@@H](CCC(=O)O)C(=O)O)cc1 [MTX, Methotrexate]
plaque formation (scaling) PASI score of IMQ-administered region on the back (as of the 4th day): decreased
total PASI score (as of the 4th day): Decrease
thickness PASI score of IMQ-administered region on the back (as of the 5th day): decreased
